Organism: Rattus norvegicus
Experiment: DrugMatrix - Regimen: Daily Repeat
Type: toxicity, organism-based, Sprague-Dawley
Set-up: regimen Daily Repeat, gender Male, age 6-8 weeks
Conditions: in vivo, sc, 0 mg/kg, route mini-PUMP - SUBCUTANEOUS, dose level Control, vehicle 100 % SALINE; for ABSOLUTE BASOPHIL / ABSOLUTE EOSINOPHIL / ABSOLUTE LYMPHOCYTE / ABSOLUTE MONOCYTE / ABSOLUTE SEGMENTED NEUTROPHIL / BASOPHIL / EOSINOPHIL / ERYTHROCYTE COUNT / HEMATOCRIT / HEMOGLOBIN / LEUKOCYTE COUNT / LYMPHOCYTE / MEAN CORPUSCULAR HEMOGLOBIN / MEAN CORPUSCULAR HEMOGLOBIN CONCENTRATION / MEAN CORPUSCULAR VOLUME / MONOCYTE / NEUTROPHIL / NUCLEATED RED BLOOD CELLS / PLATELET COUNT: tissue Blood; for ALANINE AMINOTRANSFERASE / ALBUMIN / ALKALINE PHOSPHATASE / ASPARTATE AMINOTRANSFERASE / BLOOD UREA NITROGEN / CARBON DIOXIDE / CHLORIDE / CHOLESTEROL / CREATININE / GLUCOSE / LACTATE DEHYDROGENASE / LIPASE / PHOSPHORUS / POTASSIUM / SODIUM / TOTAL BILIRUBIN / TOTAL PROTEIN / URIC ACID: tissue Plasma

NC[C@H](O)c1ccc(O)c(O)c1 [NOREPINEPHRINE]
ABSOLUTE BASOPHIL (72 h, time 3 day): 0 CELLS/uL | ABSOLUTE EOSINOPHIL (72 h, time 3 day): 77.17 CELLS/uL | ABSOLUTE LYMPHOCYTE (72 h, time 3 day): 14293.83 CELLS/uL | ABSOLUTE MONOCYTE (72 h, time 3 day): 354 CELLS/uL | ABSOLUTE SEGMENTED NEUTROPHIL (72 h, time 3 day): 1658.33 CELLS/uL | BASOPHIL (72 h, time 3 day): 0% | EOSINOPHIL (72 h, time 3 day): 0.5% | ERYTHROCYTE COUNT (72 h, time 3 day): 6.27 x10E6/uL | HEMATOCRIT (72 h, time 3 day): 36.95% | HEMOGLOBIN (72 h, time 3 day): 13.4 G/DL | LEUKOCYTE COUNT (72 h, time 3 day): 16.38 x10E3/uL | LYMPHOCYTE (72 h, time 3 day): 87.17% | MEAN CORPUSCULAR HEMOGLOBIN (72 h, time 3 day): 21.42 pg | MEAN CORPUSCULAR HEMOGLOBIN CONCENTRATION (72 h, time 3 day): 36.27 G/DL | MEAN CORPUSCULAR VOLUME (72 h, time 3 day): 59.03 fL | MONOCYTE (72 h, time 3 day): 2% | NEUTROPHIL (72 h, time 3 day): 10.33% | NUCLEATED RED BLOOD CELLS (72 h, time 3 day): 0 /100WBC | PLATELET COUNT (72 h, time 3 day): 904.67 x10E3/uL | ALANINE AMINOTRANSFERASE (72 h, time 3 day): 48.33 u/L | ALBUMIN (72 h, time 3 day): 3.82 G/DL | ALKALINE PHOSPHATASE (72 h, time 3 day): 282.33 u/L | ASPARTATE AMINOTRANSFERASE (72 h, time 3 day): 86.83 u/L | BLOOD UREA NITROGEN (72 h, time 3 day): 20.17 mg/dL | CARBON DIOXIDE (72 h, time 3 day): 34.67 mmol/L | CHLORIDE (72 h, time 3 day): 102 MEQ/L | CHOLESTEROL (72 h, time 3 day): 71.5 mg/dL | CREATININE (72 h, time 3 day): 0.2 mg/dL | GLUCOSE (72 h, time 3 day): 136.83 mg/dL | LACTATE DEHYDROGENASE (72 h, time 3 day): 159 u/L | LIPASE (72 h, time 3 day): 9 u/L | PHOSPHORUS (72 h, time 3 day): 10.12 mg/dL | POTASSIUM (72 h, time 3 day): 5.92 MEQ/L | SODIUM (72 h, time 3 day): 147.8 MEQ/L | TOTAL BILIRUBIN (72 h, time 3 day): 0.2 mg/dL | TOTAL PROTEIN (72 h, time 3 day): 6.05 G/DL | URIC ACID (72 h, time 3 day): 1.4 mg/dL | ABSOLUTE BASOPHIL (120 h, time 5 day): 0 CELLS/uL | ABSOLUTE EOSINOPHIL (120 h, time 5 day): 0 CELLS/uL | ABSOLUTE LYMPHOCYTE (120 h, time 5 day): 14257.33 CELLS/uL | ABSOLUTE MONOCYTE (120 h, time 5 day): 326 CELLS/uL | ABSOLUTE SEGMENTED NEUTROPHIL (120 h, time 5 day): 3216.67 CELLS/uL | BASOPHIL (120 h, time 5 day): 0% | EOSINOPHIL (120 h, time 5 day): 0% | ERYTHROCYTE COUNT (120 h, time 5 day): 6.11 x10E6/uL | HEMATOCRIT (120 h, time 5 day): 36.22% | HEMOGLOBIN (120 h, time 5 day): 13.18 G/DL | LEUKOCYTE COUNT (120 h, time 5 day): 17.8 x10E3/uL | LYMPHOCYTE (120 h, time 5 day): 80.5% | MEAN CORPUSCULAR HEMOGLOBIN (120 h, time 5 day): 21.62 pg | MEAN CORPUSCULAR HEMOGLOBIN CONCENTRATION (120 h, time 5 day): 36.42 G/DL | MEAN CORPUSCULAR VOLUME (120 h, time 5 day): 59.37 fL | MONOCYTE (120 h, time 5 day): 1.83% | NEUTROPHIL (120 h, time 5 day): 17.67% | NUCLEATED RED BLOOD CELLS (120 h, time 5 day): 0 /100WBC | PLATELET COUNT (120 h, time 5 day): 1311 x10E3/uL | ALANINE AMINOTRANSFERASE (120 h, time 5 day): 47 u/L | ALBUMIN (120 h, time 5 day): 3.83 G/DL | ALKALINE PHOSPHATASE (120 h, time 5 day): 260.33 u/L | ASPARTATE AMINOTRANSFERASE (120 h, time 5 day): 76.17 u/L | BLOOD UREA NITROGEN (120 h, time 5 day): 14.67 mg/dL | CARBON DIOXIDE (120 h, time 5 day): 31.33 mmol/L | CHLORIDE (120 h, time 5 day): 101.17 MEQ/L | CHOLESTEROL (120 h, time 5 day): 75 mg/dL | CREATININE (120 h, time 5 day): 0.16 mg/dL | GLUCOSE (120 h, time 5 day): 152.67 mg/dL | LACTATE DEHYDROGENASE (120 h, time 5 day): 147.33 u/L | LIPASE (120 h, time 5 day): 9.33 u/L | PHOSPHORUS (120 h, time 5 day): 10.97 mg/dL | POTASSIUM (120 h, time 5 day): 6 MEQ/L | SODIUM (120 h, time 5 day): 145.52 MEQ/L | TOTAL BILIRUBIN (120 h, time 5 day): 0.17 mg/dL | TOTAL PROTEIN (120 h, time 5 day): 5.83 G/DL | URIC ACID (120 h, time 5 day): 1.27 mg/dL | ABSOLUTE BASOPHIL ([…], time 14 day): 0 CELLS/uL | ABSOLUTE EOSINOPHIL ([…], time 14 day): 64.5 CELLS/uL | ABSOLUTE LYMPHOCYTE ([…], time 14 day): 12507.83 CELLS/uL | ABSOLUTE MONOCYTE ([…], time 14 day): 380.33 CELLS/uL | ABSOLUTE SEGMENTED NEUTROPHIL ([…], time 14 day): 2414 CELLS/uL | BASOPHIL ([…], time 14 day): 0% | EOSINOPHIL ([…], time 14 day): 0.5% | ERYTHROCYTE COUNT ([…], time 14 day): 6.1 x10E6/uL | HEMATOCRIT ([…], time 14 day): 35.4% | HEMOGLOBIN ([…], time 14 day): 12.88 G/DL | LEUKOCYTE COUNT ([…], time 14 day): 15.37 x10E3/uL | LYMPHOCYTE ([…], time 14 day): 80.83% | MEAN CORPUSCULAR HEMOGLOBIN ([…], time 14 day): 21.18 pg | MEAN CORPUSCULAR HEMOGLOBIN CONCENTRATION ([…], time 14 day): 36.43 G/DL | MEAN CORPUSCULAR VOLUME ([…], time 14 day): 58.17 fL | MONOCYTE ([…], time 14 day): 2.17% | NEUTROPHIL ([…], time 14 day): 16.5% | NUCLEATED RED BLOOD CELLS ([…], time 14 day): 0.17 /100WBC | PLATELET COUNT ([…], time 14 day): 1016 x10E3/uL | ALANINE AMINOTRANSFERASE ([…], time 14 day): 53.33 u/L | ALBUMIN ([…], time 14 day): 3.93 G/DL | ALKALINE PHOSPHATASE ([…], time 14 day): 319.83 u/L | ASPARTATE AMINOTRANSFERASE ([…], time 14 day): 84 u/L | BLOOD UREA NITROGEN ([…], time 14 day): 15.5 mg/dL | CARBON DIOXIDE ([…], time 14 day): 34 mmol/L | CHLORIDE ([…], time 14 day): 101.83 MEQ/L | CHOLESTEROL ([…], time 14 day): 57 mg/dL | CREATININE ([…], time 14 day): 0.21 mg/dL | GLUCOSE ([…], time 14 day): 182.33 mg/dL | LACTATE DEHYDROGENASE ([…], time 14 day): 104.67 u/L | LIPASE ([…], time 14 day): 9.17 u/L | PHOSPHORUS ([…], time 14 day): 11.12 mg/dL | POTASSIUM ([…], time 14 day): 5.81 MEQ/L | SODIUM ([…], time 14 day): 144.85 MEQ/L | TOTAL BILIRUBIN ([…], time 14 day): 0.18 mg/dL | TOTAL PROTEIN ([…], time 14 day): 5.92 G/DL | URIC ACID ([…], time 14 day): 1.38 mg/dL
